What all share (type): cell-based
One series concerns NCI-H-460 cells. Briefly: Cell cytotoxicity assay, NCI-H-460 cells. The following applies: Homo sapiens, NCI-H460, 72 hours, percent cytotoxicity against DMSO control; for cytotoxicity at 1 µM: 1 μM compound, read-out: Cell toxicity NCI-H-460 cells 1 μM; for cytotoxicity at 10 µM: 10 μM compound, read-out: Cell toxicity NCI-H-460 cells 10 μM. An excerpt:
(§1) The following human derived non-small cell lung cancer cell lines were used to test the efficiency of the compounds to cause cell death and assess the anti-cancer properties of said compounds: 1. A549 cells: adenocarcinomic human alveolar basal epithelial cells; these cells are used as models for the study of lung cancer and the development of drug therapies against it • 2. NCI-H-460 cells are also human lung cancer cells, and • 3. NCI-H-522 cells are also human lung cancer cells.
(§2) 500 cells/well/30 μL were seeded in a 384 well cell culture plate. Incubated over night at 37° C., 5% CO2 in cell culture incubator. 10 μL of 4× compound was added to the plates, and incubated for 72 hours at 37° C., 5% CO2 in cell culture incubator. Assay DMSO control were included for 0% cytotoxicity control. Assay was terminated by addition of 10 μL of the reagent CTG 2.0 detection reagent #G9242. Plates were incubated for 20 minute incubation at room temperature with shaking Plate were read in Envision. Ultrasensitive luminescence and data was analyzed and percent cytotoxicity of compounds was determined against DMSO control.
(§3) All the compounds, A1-A116, were tested for cell toxicity using said non-small cell lung cancer cell lines using the above described method.

The subject of series [1] is Non-small cell lung cancer cell lines. Briefly: Cell toxicity assay, overall statement. The following applies: summary in words of Table 6.
From the text: as §1, §2, §3
These selected derivatives of Formula A were further tested to confirm their efficiency as anti-cancer compounds.

The next series has as its system NCI-H-522 cells. The series can be described thus: Cell cytotoxicity assay, NCI-H-522 cells. Particulars: Homo sapiens, NCI-H522, 72 hours, percent cytotoxicity against DMSO control; for cytotoxicity at 1 µM: 1 μM compound, read-out: Cell toxicity NCI-H-522 cells 1 μM; for cytotoxicity at 10 µM: 10 μM compound, read-out: Cell toxicity NCI-H-522 cells 10 μM.
From the text: as §1, §2, §3

Another series concerns A549 cells. The series can be described thus: Cell cytotoxicity assay, A549 cells. The following applies: Homo sapiens, 72 hours, percent cytotoxicity against DMSO control; for cytotoxicity at 1 µM: 1 μM compound, read-out: Cell toxicity A549 cells 1 μM; for cytotoxicity at 10 µM: 10 μM compound, read-out: Cell toxicity A549 cells 10 μM.
From the text: as §1, §2, §3

Structures are written as SMILES.

Consider `COc1cc(Nc2nc(C)cc(N3CCN(c4ccnc5cc(Cl)ccc45)CC3)n2)cc(C(F)(F)F)c1` [Compound A2, 4-(4-(7-chloroquinolin-4-yl)piperazin-1-yl)-N-(3-methoxy-5-(trifluoromethyl)phenyl)-6-methylpyrimidin-2-amine], for which the cytotoxicity at 1 µM with NCI-H-460 cells was -8%; with NCI-H-522 cells, 4%; in the series on A549 cells it was 9%. For the same compound, the cytotoxicity at 10 µM was -3% in the series on NCI-H-460 cells, 14% in the series with NCI-H-522 cells and 1% with A549 cells. Also, the “activity against Non-small cell lung cancer (cell toxicity)” value in series [1] is recorded as “active”.

For `COc1cccc(Nc2nc(C)cc(N3CCN(c4ccnc5cc(Cl)ccc45)CC3)n2)c1` [Compound A4, 4-(4-(7-chloroquinolin-4-yl)piperazin-1-yl)-N-(3-methoxyphenyl)-6-methylpyrimidin-2-amine], the values for the cytotoxicity at 1 µM with NCI-H-460 cells, in the series on NCI-H-522 cells and with A549 cells were -4%, 14% and 47%, respectively. Also, the figures for the cytotoxicity at 10 µM in the series with NCI-H-460 cells, with NCI-H-522 cells and with A549 cells were 71%, 57% and 95%, respectively. Also, the “activity against Non-small cell lung cancer (cell toxicity)” value in series [1] is reported as “active”.

For the compound `COc1cc(F)cc(Nc2nc(C)cc(N3CCN(c4ccnc5cc(Cl)ccc45)CC3)n2)c1` [Compound A5, 4-(4-(7-chloroquinolin-4-yl)piperazin-1-yl)-N-(3-fluoro-5-methoxyphenyl)-6-methylpyrimidin-2-amine], the cytotoxicity at 1 µM in the series with NCI-H-460 cells was -8%; in the series on NCI-H-522 cells it was 6%; in the series with A549 cells, 24%. In addition, the cytotoxicity at 10 µM in the series on NCI-H-460 cells was found to be 7%; in the series with NCI-H-522 cells, 22%; in the series on A549 cells it was 5%. In addition, in series [1], the “activity against Non-small cell lung cancer (cell toxicity)” value is “active”.

Regarding `COc1cc(Nc2nc(N3CCN(c4ccnc5cc(Cl)ccc45)CC3)cc(C(F)(F)F)n2)cc(C(F)(F)F)c1` [Compound A6, 4-(4-(7-chloroquinolin-4-yl)piperazin-1-yl)-N-(3-methoxy-5-(trifluoromethyl)phenyl)-6-(trifluoromethyl)pyrimidin-2-amine], the figures for the cytotoxicity at 1 µM with NCI-H-460 cells, with NCI-H-522 cells and with A549 cells were -7%, 7% and 15%, respectively. The cytotoxicity at 10 µM with NCI-H-460 cells was -1%; with NCI-H-522 cells it was 21%; in the series on A549 cells, 4%. Further, the “activity against Non-small cell lung cancer (cell toxicity)” value in series [1] is “active”.

For `COc1cccc(Nc2nc(N3CCN(c4ccnc5cc(Cl)ccc45)CC3)cc(C(F)(F)F)n2)c1` [Compound A8, 4-(4-(7-chloroquinolin-4-yl)piperazin-1-yl)-N-(3-methoxyphenyl)-6-(trifluoromethyl)pyrimidin-2-amine], the values for the cytotoxicity at 1 µM in the series on NCI-H-460 cells, in the series on NCI-H-522 cells and in the series on A549 cells were -9%, 1% and 14%, respectively. The results for the cytotoxicity at 10 µM with NCI-H-460 cells, in the series with NCI-H-522 cells and in the series with A549 cells were -3%, 7% and 5%, respectively. In addition, the “activity against Non-small cell lung cancer (cell toxicity)” value in series [1] is on record as “active”.

Turning to `Cc1cc(N2CCN(c3ccnc4cc(Cl)ccc34)CC2)nc(N2CCCC2)n1` [Compound A11, 7-chloro-4-(4-(6-methyl-2-(pyrrolidin-1-yl)pyrimidin-4-yl)piperazin-1-yl)quinoline], the cytotoxicity at 1 µM in the series on NCI-H-460 cells was -12%; in the series with NCI-H-522 cells it was 2%; with A549 cells it was 16%. Further, the cytotoxicity at 10 µM in the series with NCI-H-460 cells was -4%; in the series with NCI-H-522 cells, 9%; in the series on A549 cells it was 10%. For the same compound, the “activity against Non-small cell lung cancer (cell toxicity)” value in series [1] is given as “active”.

As to `Cc1cc(N2CCN(c3ccnc4cc(Cl)ccc34)CC2)nc(N2CCCCC2)n1` [Compound A12, 7-chloro-4-(4-(6-methyl-2-(piperidin-1-yl)pyrimidin-4-yl)piperazin-1-yl)quinoline], the values for the cytotoxicity at 1 µM in the series on NCI-H-460 cells, with NCI-H-522 cells and with A549 cells were -9%, 5% and 10%, respectively. Moreover, the cytotoxicity at 10 µM in the series on NCI-H-460 cells, in the series on NCI-H-522 cells and in the series on A549 cells was 99% throughout. The “activity against Non-small cell lung cancer (cell toxicity)” value in series [1] is “active”.

With `Cc1cc(N2CCN(c3ccnc4cc(Cl)ccc34)CC2)nc(N2CCCCCC2)n1` [Compound A13, 4-(4-(2-(azepan-1-yl)-6-methylpyrimidin-4-yl)piperazin-1-yl)-7-chloroquinoline], the cytotoxicity at 1 µM with NCI-H-460 cells is -11%; in the series on NCI-H-522 cells, 3%; in the series on A549 cells it was 14%. In addition, the cytotoxicity at 10 µM was determined as 47% in the series on NCI-H-460 cells, 48% in the series on NCI-H-522 cells and 88% with A549 cells. Moreover, the “activity against Non-small cell lung cancer (cell toxicity)” value in series [1] was “active”.

As to `Cc1cc(N2CCN(c3ccnc4cc(Cl)ccc34)CC2)nc(N2CCOCC2)n1` [Compound A16, 4-(4-(4-(7-chloroquinolin-4-yl)piperazin-1-yl)-6-methylpyrimidin-2-yl)morpholine], the cytotoxicity at 1 µM in the series on NCI-H-460 cells is -11%; in the series on NCI-H-522 cells, 8%; with A549 cells it was 9%. Besides, the cytotoxicity at 10 µM with NCI-H-460 cells is -6%; with NCI-H-522 cells, 12%; in the series on A549 cells, -17%. For the same compound, the “activity against Non-small cell lung cancer (cell toxicity)” value in series [1] was “active”.

Take `FC(F)(F)c1cc(N2CCN(c3ccnc4cc(Cl)ccc34)CC2)nc(N2CCCC2)n1` [Compound A19, 7-chloro-4-(4-(2-(pyrrolidin-1-yl)-6-(trifluoromethyl)pyrimidin-4-yl)piperazin-1-yl)quinoline]: the cytotoxicity at 1 µM was -8% in the series with NCI-H-460 cells, 11% with NCI-H-522 cells and 25% in the series on A549 cells. Besides, the cytotoxicity at 10 µM was 45% in the series with NCI-H-460 cells, 48% in the series on NCI-H-522 cells and 87% in the series on A549 cells. The “activity against Non-small cell lung cancer (cell toxicity)” value in series [1] was “active”.

Regarding `FC(F)(F)c1cc(N2CCN(c3ccnc4cc(Cl)ccc34)CC2)nc(N2CCCCC2)n1` [Compound A20, 7-chloro-4-(4-(2-(piperidin-1-yl)-6-(trifluoromethyl)pyrimidin-4-yl)piperazin-1-yl)quinoline], the results for the cytotoxicity at 1 µM in the series on NCI-H-460 cells, with NCI-H-522 cells and with A549 cells were -10%, 8% and 37%, respectively. Further, the results for the cytotoxicity at 10 µM in the series with NCI-H-460 cells, with NCI-H-522 cells and with A549 cells were 60%, 43% and 89%, respectively. In addition, the “activity against Non-small cell lung cancer (cell toxicity)” value in series [1] is reported as “active”.

For the compound `FC(F)(F)c1cc(N2CCN(c3ccnc4cc(Cl)ccc34)CC2)nc(N2CCCCCC2)n1` [Compound A21, 4-(4-(2-(azepan-1-yl)-6-(trifluoromethyl)pyrimidin-4-yl)piperazin-1-yl)-7-chloroquinoline], the cytotoxicity at 1 µM with NCI-H-460 cells is -15%; in the series on NCI-H-522 cells it was 1%; in the series on A549 cells it was 13%. The cytotoxicity at 10 µM is -8% in the series on NCI-H-460 cells, 9% in the series on NCI-H-522 cells and 23% with A549 cells. Also, in series [1], the “activity against Non-small cell lung cancer (cell toxicity)” value is listed as “active”.

Take `FC(F)(F)c1cc(N2CCN(c3ccnc4cc(Cl)ccc34)CC2)nc(N2CCNCC2)n1` [Compound A22, 7-chloro-4-(4-(2-(piperazin-1-yl)-6-(trifluoromethyl)pyrimidin-4-yl)piperazin-1-yl)quinoline]: the figures for the cytotoxicity at 1 µM in the series with NCI-H-460 cells, with NCI-H-522 cells and with A549 cells were -14%, 1% and 11%, respectively. In addition, the cytotoxicity at 10 µM in the series on NCI-H-460 cells is -2%; with NCI-H-522 cells, 11%; with A549 cells, 17%. In series [1], the “activity against Non-small cell lung cancer (cell toxicity)” value is given as “active”.

Take `CN1CCN(c2nc(N3CCN(c4ccnc5cc(Cl)ccc45)CC3)cc(C(F)(F)F)n2)CC1` [Compound A23, 7-chloro-4-(4-(2-(4-methylpiperazin-1-yl)-6-(trifluoromethyl)pyrimidin-4-yl)piperazin-1-yl)quinoline]: the cytotoxicity at 1 µM was -15% with NCI-H-460 cells, 1% in the series with NCI-H-522 cells and 12% with A549 cells. The cytotoxicity at 10 µM with NCI-H-460 cells was -2%; in the series with NCI-H-522 cells it was 9%; in the series with A549 cells, 13%. In series [1], the “activity against Non-small cell lung cancer (cell toxicity)” value is “active”.
